Columns and labels:
Conditions in all cases: main component drawn
[1] = test system: B. subtilis 168; assay: fitness (endpoint OD595 vs no drug) (fraction); higher = more growth
Procedure, shortened: (§1)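 Each well of a 384-well plate received 30 µl of culture at OD595 0.01, or 55 µl for S. pneumoniae. TSB, LB Lennox or CY served as media at 37 °C. OD595 was taken every 30 min for 14 h and corrected by subtracting the first reading. Fitness is the optical density at stationary-phase entry divided by the robust mean of no-drug controls, capped at 1.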

[2] = test system: S. aureus Newman; assay: as above
Procedure, shortened: as §1

[3] = test system: S. pneumoniae D39V; assay: as above
Procedure, shortened: as §1

[4] = test system: B. subtilis 168; assay: Bliss interaction score (quartile over a dose matrix) (fitness difference); higher = more antagonism (negative = synergy)
Procedure, shortened: (§2)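 The Bliss score is observed fitness minus expected fitness, where the expected value is the product of single-drug fitness values inferred from combination data. Fitness is OD595 at entry into stationary phase normalised to the plate's robust no-drug mean and capped at 1. Scores are reported as quartiles spanning technical, biological and donor/recipient replicates.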

[5] = test system: S. aureus DSM 20231; assay: as above
Procedure, shortened: as §2

[6] = test system: S. aureus Newman; assay: as above
Procedure, shortened: as §2

[7] = test system: S. pneumoniae D39V; assay: as above
Procedure, shortened: as §2
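Throughout, for Bliss interaction score (quartile over a dose matrix): first quartile when negative (synergy) and third quartile when positive (antagonism).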

CNC(C)C1CCC(N)C(OC2C(N)CC(N)C(OC3OCC(C)(O)C(NC)C3O)C2O)O1 (centres undefined) [Gentamicin] + CN(N=O)C(=O)N[C@@H](C=O)[C@@H](O)[C@H](O)[C@H](O)CO [Streptozotocin]
fitness
Conditions	partner 0.15 µg/mL	partner 0.3 µg/mL	partner 0.6 µg/mL	partner 1.2 µg/mL	partner 2.4 µg/mL	partner 4.8 µg/mL
[1], first compound 0.0625 µg/mL	0.949	0.952	0.956	–	–	–
[1], first compound 0.25 µg/mL	0.161	0.164	0.12	–	–	–
[2], first compound 0.5 µg/mL	0.871	0.801	0.708	–	–	–
[2], first compound 1 µg/mL	0.888	0.844	0.724	–	–	–
[2], first compound 2 µg/mL	0.898	0.856	0.732	–	–	–
[3], first compound 2 µg/mL	–	–	–	0.892	0.949	0.914
[3], first compound 4 µg/mL	–	–	–	0.93	0.966	0.949
[3], first compound 8 µg/mL	–	–	–	0.942	0.967	0.878

fitness, [2], one replicate
Conditions	first compound 0.375 µg/mL	first compound 0.75 µg/mL	first compound 1.5 µg/mL
partner 0.15 µg/mL	0.851	0.848	0.777
partner 0.3 µg/mL	0.717	0.687	0.706
partner 0.6 µg/mL	0.534	0.585	0.561

Conditions	Bliss interaction score
[4]	-0.125
[5]	-0.0423
[6]	0.0523
[7]	0.0654

CNC(C)C1CCC(N)C(OC2C(N)CC(N)C(OC3OCC(C)(O)C(NC)C3O)C2O)O1 (centres undefined) [Gentamicin] + CN[C@@H]1[C@H](O)[C@H](NC)[C@H]2O[C@@]3(O)C(=O)C[C@@H](C)O[C@H]3O[C@@H]2[C@H]1O [Spectinomycin]
fitness
Conditions	partner 2 µg/mL	partner 4 µg/mL	partner 8 µg/mL	partner 16 µg/mL
[1], first compound 0.0625 µg/mL	0.951	0.988	0.814	–
[1], first compound 0.25 µg/mL	0.325	0.148	–	–
[2], first compound 0.375 µg/mL	–	0.915	0.984	0.961
[2], first compound 0.5 µg/mL	–	0.931	0.966	0.891
[2], first compound 0.75 µg/mL	–	0.928	≥ 1	0.95
[2], first compound 1 µg/mL	–	0.993	0.991	0.933
[2], first compound 1.5 µg/mL	–	0.923	≥ 1	0.96
[2], first compound 2 µg/mL	–	≥ 1	≥ 1	–
[3], first compound 2 µg/mL	–	0.964	0.901	0.663
[3], first compound 4 µg/mL	–	0.914	0.807	0.643
[3], first compound 8 µg/mL	–	0.957	0.879	0.645

fitness, [2], one replicate
Conditions	first compound 1 µg/mL	first compound 2 µg/mL	first compound 4 µg/mL
partner 16 µg/mL	–	–	0.0712
partner 32 µg/mL	0.507	0.101	0.0361
partner 64 µg/mL	0.0654	0.0856	0.0746

Conditions	Bliss interaction score
[4]	0.0812
[5]	0.044
[6]	0.0532
[7]	0.0871

From the supplement of paper PMC10627819
